# Laboratory results as given in patent US20220233558A1, “METHOD AND COMPOSITION FOR PREDICTING EFFICACY OF BCL2/BCL-XL INHIBITORS ON CANCER” (Ascentage Pharma (Suzhou) Co., Ltd., priority 2019, published 2022).
# pIC50: −log10 of the molar value.
# Experiments:
# BCL-XL:BIM complex [1] = biological target: T1, BCL-XL:BIM complex (Homo sapiens, UniProt Q07817); test: MSD advanced ELISA of BCL-XL:BIM complex in Toledo cells; type: cell-based; set-up: endogenous in cells; host or cells: Toledo; settings: treated for 24 hours
# Description: (§1) MSD advanced ELISA is a method similar to enzyme-linked immunosorbent assay (ELISA) except MSD uses electrochemiluminescence (ECL) as a detection technique while ELISA uses a colormetric reaction. In general, a solution (e.g. cell lysate) containing the protein/complex of interest is added to a substrate (e.g., wells in a plate) coated with a capture antibody specifically binding to a protein of interest. After washing, a second antibody specifically binding to a partner protein that binds to the protein of interest is added. The second antibody (or an antibody binding to the second antibody) is linked to an ECL agent, e.g. a ruthenium (Ru) metal ion, and the substrate contains an electrode. In the presence of the partner protein/protein complex, the second antibody binds to the protein complex, and the ruthenium ion will be close enough proximity to the electrode to trigger an oxidation-reduction reaction that produces light which can be detected by a CCD camera. Compared to a traditional ELISA, MSD has many advantages such as higher sensitivity, better dynamic range, less matric effects, less sample required and better efficiencies. As a result, MSD can be used to detect a protein complex in cell lysate.
# (§2) Toledo (a diffuse large B cell lymphoma line) and RS4;11 (an acute lymphocytic leukemia line) were chosen for the study. Cells were treated for 24 hours with compounds specified in FIGS. 6A and 7A (Toledo), and FIGS. 6B and 7B (RS4;11; Compound B, ABT-737 and ABT-263 were used the same concentrations for each cell line) and harvested for complex analysis. Both BCL-2:BIM and BCL-XL:BIM complex were analyzed following previously established MSD advanced ELISA methods.
# BCL-2:BIM complex = BCL-2:BIM complex (Homo sapiens, UniProt P10415); test: MSD advanced ELISA of BCL-2:BIM complex in Toledo and RS4;11 cells; type: cell-based; settings: treated for 24 hours
# Description: Toledo (a diffuse large B cell lymphoma line) and RS4;11 (an acute lymphocytic leukemia line) were chosen for the study. […] Both BCL-2:BIM and BCL-XL:BIM complex were analyzed following previously established MSD advanced ELISA methods.
# BCL-XL:BIM complex [2] = biological target: T1, BCL-XL:BIM complex; test: MSD advanced ELISA of BCL-XL:BIM complex in RS4;11 cells; type: cell-based; set-up: endogenous in cells; host or cells: Toledo; settings: treated for 24 hours
# Description: as §1, §2
# BCL-w = biological target: T2, BCL-w (Homo sapiens, UniProt Q92843); test: Binding affinity to BCL-w protein
# T2 sequence (Q92843 1-193): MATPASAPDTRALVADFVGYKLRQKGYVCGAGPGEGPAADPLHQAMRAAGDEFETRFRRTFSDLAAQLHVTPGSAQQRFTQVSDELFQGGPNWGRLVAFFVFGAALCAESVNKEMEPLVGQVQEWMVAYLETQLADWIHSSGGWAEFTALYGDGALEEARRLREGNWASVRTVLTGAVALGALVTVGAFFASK
# BCL-XL:BIM complex [3] = biological target: T1, BCL-XL:BIM complex; test: MSD assay of BCL-XL complexes in gastric and esophageal cancer PDX models; type: in vivo; set-up: endogenous in cells
# Description: as §1, with “Compared to a traditional ELISA, MSD has many advantages such as higher sensitivity, better dynamic range, less matric effects, less sample required and better efficiencies. As a result, MSD can be used to detect a protein complex in cell lysate.” left out
# PDX models (including 8 gastric cancers and 3 esophageal cancers) were selected for trials with BCL-2/BCL-XL dual inhibitor Compound A. Models were treated with 100 mg/kg twice weekly dosing schedule for three weeks, and tumor tissues were harvested for complexes analysis (specified in the figure panels) with MSD methods. […] TGI for each animal was calculated.
# cancer cell lines = test: Cell growth inhibitory activity in vitro; type: cell-based; settings: subset of cancer cell lines
# caspase-3 and PARP = test: Cleavage of caspase-3 and PARP (apoptosis markers); type: cell-based; settings: in cancer cells and in xenograft tumor tissues
# Mcl-1 protein = Mcl-1 protein (Homo sapiens, UniProt Q07820); test: Binding affinity to Mcl-1 protein
# [4] = tested on: BCL-2, MCL-1, BIM, PUMA protein levels; test: Western blotting of apoptosis proteins in PDX samples; type: in vivo; settings: PDX models, Western blot
# Description: PDX models (including 8 gastric cancers and 3 esophageal cancers) were selected for trials with BCL-2/BCL-XL dual inhibitor Compound A. Models were treated with 100 mg/kg twice weekly dosing schedule for three weeks, and tumor tissues were harvested for complexes analysis (specified in the figure panels) with MSD methods. Pharmacodynamics (PD) and biomarker studies of Compound A treatment were performed by MSD and Western blotting (WB) assays. Specifically, protein extraction was performed with the sample, level of protein complex was measured by MSD methods, and the level of protein was measured by Western Blotting. TGI for each animal was calculated.
# BCL-2 = BCL-2 (Homo sapiens, UniProt P10415); test: Binding affinity to BCL-2 protein
# BCL-xL = BCL-xL (Homo sapiens, UniProt Q07817); test: Binding affinity to BCL-xL protein
# Sequence of BCL-xL (Q07817 whole entry): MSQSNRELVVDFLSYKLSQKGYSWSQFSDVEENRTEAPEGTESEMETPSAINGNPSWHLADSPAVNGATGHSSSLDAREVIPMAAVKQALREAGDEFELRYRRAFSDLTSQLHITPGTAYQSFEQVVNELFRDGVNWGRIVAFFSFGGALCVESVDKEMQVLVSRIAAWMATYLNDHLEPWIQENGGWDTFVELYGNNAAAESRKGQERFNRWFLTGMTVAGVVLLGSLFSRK
# T1 sequence (Q07817 whole entry, one chain of several): as the sequence (Q07817 whole entry) above
# Sequence of Mcl-1 protein (Q07820 whole entry): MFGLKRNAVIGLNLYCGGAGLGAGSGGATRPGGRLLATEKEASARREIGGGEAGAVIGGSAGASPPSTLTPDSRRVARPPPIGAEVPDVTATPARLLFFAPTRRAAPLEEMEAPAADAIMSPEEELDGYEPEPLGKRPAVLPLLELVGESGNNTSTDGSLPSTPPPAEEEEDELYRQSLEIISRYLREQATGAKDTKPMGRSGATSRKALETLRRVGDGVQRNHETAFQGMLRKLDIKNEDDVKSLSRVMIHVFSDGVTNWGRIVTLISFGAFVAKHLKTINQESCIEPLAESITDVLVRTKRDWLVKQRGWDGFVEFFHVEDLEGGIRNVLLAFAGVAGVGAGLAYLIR
# Sequence of BCL-2:BIM complex (P10415 whole entry, one chain of several): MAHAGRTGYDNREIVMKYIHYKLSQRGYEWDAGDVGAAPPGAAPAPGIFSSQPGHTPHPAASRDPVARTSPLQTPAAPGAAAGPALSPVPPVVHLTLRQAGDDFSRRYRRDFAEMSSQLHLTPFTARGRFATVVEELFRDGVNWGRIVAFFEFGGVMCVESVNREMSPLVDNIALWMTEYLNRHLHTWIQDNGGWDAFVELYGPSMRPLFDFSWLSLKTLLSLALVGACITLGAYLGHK
# Sequence of BCL-2 (P10415 whole entry): as the sequence (P10415 whole entry, one chain of several) above
compound,measurement,setting,value
CC1(C)CCC(c2ccc(Cl)cc2)=C(CN2CCN(c3ccc(C(=O)NS(=O)(=O)c4ccc(N[C@H](CCN5CCOCC5)CSc5ccccc5)c(S(=O)(=O)C(F)(F)F)c4)cc3)CC2)C1 [ABT-263],disruption of BCL-XL:BIM complex,BCL-XL:BIM complex [1],much less disruption of BCL-XL:BIM complex than Compound B
same,change in BCL-2:BIM complex,BCL-2:BIM complex,reduction in BCL-2:BIM complex
same,disruption of BCL-XL:BIM complex,BCL-XL:BIM complex [2],much less disruption of BCL-XL:BIM complex than Compound B
CN(C)CC[C@H](CSc1ccccc1)Nc1ccc(S(=O)(=O)NC(=O)c2ccc(N3CCN(Cc4ccccc4-c4ccc(Cl)cc4)CC3)cc2)cc1[N+](=O)[O-] [ABT-737],disruption of BCL-XL:BIM complex,BCL-XL:BIM complex [1],much less disruption of BCL-XL:BIM complex than Compound B
same,disruption of BCL-XL:BIM complex,BCL-XL:BIM complex [2],almost no disruption of BCL-xL:BIM complex
"Cc1c(S(C)(=O)=O)c(-c2cc(F)cc(N3CCN(c4ccc(NS(=O)(=O)c5ccc(N[C@H](CCN6CCC(C(=O)OCCP(=O)(O)O)CC6)CSc6ccccc6)c(S(=O)(=O)C(F)(F)F)c5)cc4)CC3)c2)c(-c2ccc(Cl)cc2)n1C(C)C [Compound A, (R)-2-(1-(3-(4-(N-(4-(4-(3-(2-(4-chlorophenyl)-1-isopropyl-5-methyl-4-(methylsulfonyl)-1H-pyrrol-3-yl)-5-fluorophenyl)piperazin-1-yl)phenyl)sulfamoyl)-2-(trifluoromethylsulfonyl)phenylamino)-4-(phenylthiol)butyl)piperidine-4-carbonyloxy)ethylphosphonic acid]",pIC50,BCL-w,8.03
same,level of BCL-XL:BIM complex after treatment,"BCL-XL:BIM complex [3]; PDX models, 100 mg/kg twice weekly for three weeks, MSD assay",dropped
same,targeting of BCL-XL versus BCL-2 complex,BCL-XL:BIM complex [3]; in PDX,better in targeting BCL-XL than BCL-2 complex
same,cell growth inhibitory activity,cancer cell lines,nanomolar potencies
same,cleavage of caspase-3 and PARP,caspase-3 and PARP,effectively induces cleavage of caspase-3 and PARP
same,affinity to Mcl-1 protein,Mcl-1 protein,weak affinity
same,BCL-2 and MCL-1 anti-death protein levels after treatment,[4],significantly or in trend increases
same,pro-death proteins BIM or PUMA levels after treatment,[4],but not pro-death proteins BIM or PUMA
same,pIC50,BCL-2,8.80
same,pIC50,BCL-xL,8.36
"Cc1c(S(C)(=O)=O)c(-c2cc(F)cc(N3CCN(c4ccc(NS(=O)(=O)c5ccc(N[C@H](CCN6CCC(C(=O)O)CC6)CSc6ccccc6)c(S(=O)(=O)C(F)(F)F)c5)cc4)CC3)c2)c(-c2ccc(Cl)cc2)n1C(C)C [Compound B, (R)-1-(3-(4-(N-(4-(4-(3-(2-(4-chlorophenyl)-1-isopropyl-5-methyl-4-(methylsulfonyl)-1H-pyrrol-3-yl)-5-fluorophenyl)piperazin-1-yl)phenyl)sulfamoyl)-2-(trifluoromethylsulfonyl)phenylamino)-4-(phenylthio)butyl)piperldine-4-carboxylic acid]",disruption of BCL-XL:BIM complex,BCL-XL:BIM complex [1],more potently disrupted BCL-XL:BIM than BCL-2:BIM complex
same,disruption of BCL-XL:BIM complex,BCL-XL:BIM complex [2],more potently disrupted BCL-XL:BIM than BCL-2:BIM complex
